Test results published in patent US4067997A, “Synergistic microbecidal composition and method” (priority 1976, dated 1978).
≈ marks a conversion by molar mass, not a printed value. Where two headings read alike, the source gives them in different places.

Experiments:
[1] = test system: Streptococcus Group A; test: MIC, broth dilution (Examples I/II); assay type: cell-based, beta-hemolytic streptococci Group A; settings: Table 7, Strep. Grp. A
Experimental: (§1) In order to establish comparative bactericidal and fungicidal results with homologous fatty acids, a series of experiments was performed with thirty straight-chain fatty acids and derivatives thereof. Eight different gram-negative and twelve different gram-positive organisms, representing a very broad spectrum of organisms, were used in these experiments including the fungus Candida (a yeast). Additionally, fatty acids were chosen to show the effects of saturation versus unsaturation, in the fatty acid claim. Standard solutions of the fatty acids and their derivatives were prepared by first dissolving the weighed compounds in 1 to 2 ml of 95% ethanol and immediately pouring this solution into 200 ml of Tripticase Soy Broth. These lipid compounds which are insoluble in water and broth precipitated into very small crystals or droplets. The tubes containing the suspension were warmed to approximately 70° C and were then placed in an ultrasonic tank for further solubilization of the lipid derivatives.
(§2) Standard solutions (or suspensions) at 1,000 μg/ml were twofold serially diluted with additional broth to a concentration of 125 μg/ml. A 4-ml amount of each dilution was then quickly, and with constant agitation, dispensed into appropriately labeled screw-capped glass tubes (16 by 125 mm). The tubes were sterilized with steam at 15 psi for 15 minutes. After sterilization, all tubes were cooled and incubated overnight at 35° C to insure sterility.
(§3) All compounds were compared on a molar (micromoles/milliliter) rather than on a mass basis. In the following lists of organisms used, those followed by a parenthetical number are registered with the American Type Culture Collection (ATCC); the remainder were isolates from Providence Hospital or Northland Laboratory.
(§4) One drop (0.04 ± 0.01 ml) of an 18-hr broth culture containing 10^7 and 10^9 organisms/ml was added to each dilution of the test compound, as well as to a tube of plain broth which served as the positive control. After inoculation, the contents of each tube were well mixed, and the tubes were incubated at 35° C in a 5% carbon dioxide + […] atmosphere.
(§5) The MIC is defined as the lowest concentration of compound at which no […] evidence of growth was observed when turbidity of the inoculated broth dilutions was compared with control tubes. […] Only a one-tube difference between the bactericidal and bacteriostatic concentrations was normally observed.
(§6) Standard solutions (1000 μg/ml) of three fatty acids and polyglycerol esters thereof were prepared as described in Example I. Also sucrose esters were prepared by transferring the weighed compounds (0.2 gm. dissolved in 1 ml absolute methanol) into 200 ml of sterile Trypticase Soy Broth (TSB). These standard solutions (1000 μg/ml) were twofold serially diluted with additional sterile broth to a concentration of 125 μg/ml. A 3.8 aliquot of each dilution was asceptically delivered into sterile screw-capped culture tubes. All tubes were incubated overnight at 36° C to insure sterility. The microorganisms used in this example were the same as those used in Example I.
(§7) The inoculum, 0.05 ml of an 13-24 hour TSB culture (approximately 10^9 organisms/ml) was asceptically delivered into all dilutions of the compounds, mixed well, and incubated at 36° C. A tube of inoculated broth without the compound served as a positive control and an uninoculated set of dilutions incubated along with the test dilutions, served as a negative control.
(§8) In those cases in which the test compound itself caused turbidity, an aliquot (0.015 ml) of the mixed broth was inoculated onto an agar plate and incubated at 36° C for examination, as described in Example I. The control procedure of Example I was also repeated. The lauric, capric, and oleic acids were used as internal controls and for comparison to Example I. The minimal inhibitory concentrations (μmole/ml) for the compounds studied are given in Tables 7 and 8.

[2] = test system: Streptococcus β-hemolytic Non-A; test: MIC, broth dilution (Examples I/II); assay type: cell-based, beta-hemolytic streptococci non-group A; settings: Table 7, Strep. β-hemo. Non-A
Experimental: as §1, §2, §3, §4, §5, §6, §7, §8

[3] = test system: Corynebacteria; test: MIC, broth dilution (Examples I/II); assay type: cell-based, Corynebacterium sp. (10700); settings: Table 7, Cornebacteria
Experimental: as §1, §2, §3, §4, §5, §6, §7, §8

[4] = test system: Micrococci; test: MIC, broth dilution (Examples I/II); assay type: cell-based, Micrococcus sp.; settings: Table 7, Micrococci
Experimental: as §1, §2, §3, §4, §5, §6, §7, §8

[5] = test system: S. epidermidis; test: MIC, broth dilution (Examples I/II); assay type: cell-based; settings: Table 7, Staph epider.; > = no inhibition, max. tested
Experimental: as §1, §2, §3, §4, §5, §6, §7, §8

[6] = test system: Streptococcus Group D; test: MIC, broth dilution (Examples I/II); assay type: cell-based; settings: Table 7, Strep. Grp. D; > = no inhibition, max. tested
Experimental: as §1, §2, §3, §4, §5, §6, §7, §8

[7] = test system: Sarcina; test: MIC, broth dilution (Examples I/II); assay type: cell-based, Sarcina lutea (9431); settings: Table 7, Sarcina; > = no inhibition, max. tested
Experimental: as §1, §2, §3, §4, §5, §6, §7, §8

[8] = test system: S. pyogenes; test: Growth curve by optical density (Example IV, FIG. 3); assay type: cell-based, streptococcus pyogenes; settings: 24 hours
Experimental: To a series of containers is added 40 ml of Trypticase Soy Broth and 0.5 ml of streptococcus pyogenes (10^8 organisms/ml). To respective containers are added the following: (1) 10 μg of glycerol 1-mono-laurinand 10 μg of glycerol dilaurin; (2) 5 μg of glycerol 1-mono-laurin and 5 μg of glycerol dilaurin; (3) 10 μg of glycerol 1-mono-laurin; and (4) 5 μg of glycerol 1-mono-laurin; and (5) a control without any additives. The rate of growth of the S. pyogenes was followed for 24 hours at 6 hour intervals by reading the optical density of the cultures at […] in a spectrophotometer.

[9] = test system: Group A Strep.; test: MIC of potassium soaps of unsaturated fatty acids (Example III); assay type: cell-based, Group A β-hemolytic Streptococci; settings: Table 10, Group A Strep.
[10] = test system: Aspergillus niger; test: MIC, agar dilution method (Example XVI); assay type: cell-based; settings: Aspergillus niger
Description: (§9) In a manner similar to that described in Example V, the effectiveness of certain food-grade microbecides are compared with mono-esters in an agar dilution method. The very favorable results may be noted from Table 19.

[11] = test system: Bacillus subtilis; test: MIC, agar dilution method (Example XVI); assay type: cell-based; settings: Bacillus subtilis
Description: as §9

[12] = test system: Canadida albicans; test: MIC, agar dilution method (Example XVI); assay type: cell-based
Description: as §9

[13] = test system: Escherichia coli; test: MIC, agar dilution method (Example XVI); assay type: cell-based; settings: Escherichia coli
Description: as §9

[14] = test system: Pseudomonas aeruginosa; test: MIC, agar dilution method (Example XVI); assay type: cell-based; settings: Pseudomonas aeruginosa
Description: as §9

[15] = test system: Staphylococcus aureus; test: MIC, agar dilution method (Example XVI); assay type: cell-based; settings: Staphylococcus aureus
Description: as §9

[16] = test system: nine gram-positive organisms and the yeast/fungus Candida; test: MIC, broth dilution, over all organisms (Examples I/II); assay type: cell-based
Experimental: as §1, §2, §3
Staphylococcus aureus, S. epidermidis, beta-hemolytic streptococci (Group A and non-group A), group D streptococcus, Bacillus subtilis (6051), Sarcina lutea (9431), Micrococcus sp., Candida albicans, Nocardia asteroids (3308), Corynebacterium sp. (10700), and pneumococcus (63001).
as §4, §5
Table 5 presents a comparison of the C10 and C12 free acids and their glyceryl derivatives, and Table 6 gives the corresponding ranges of activity.
as §6
The inoculum, 0.05 ml of an 13-24 hour TSB culture (approximately 10^9 organisms/ml) was asceptically delivered into all dilutions of the compounds, mixed well, and incubated at 36° C. […]

[17] = test system: S. aureus; test: MIC, broth dilution (Examples I/II); assay type: cell-based, Staphylococcus aureus; settings: Table 7, Staph aureus; > = no inhibition, max. tested
Experimental: as §1, §2, §3
One drop (0.04 ± 0.01 ml) of an 18-hr broth culture containing 10^7 and 10^9 organisms/ml was added to each dilution of the test compound, as well as to a tube of plain broth which served as the positive control. […]

[18] = Table 19, agar dilution, read-out: MIC

| Molecule | MIC [1] | MIC [2] | MIC [3] | MIC [4] | MIC [5] | MIC [6] | MIC [7] | other results |
| --- | --- | --- | --- | --- | --- | --- | --- | --- |
| Decaglycerol monolaurate | 260 µM | 530 µM | 530 µM | 530 µM | > 1060 µM | > 1060 µM | > 1060 µM | – |
| glycerol dilaurin | – | – | – | – | – | – | – | Antimicrobial activity in words (growth curve) [8]: essentially inactive |
| CCCCC/C=C/CC/C=C/CCCCCCC(=O)O [.increment.^8 12] | – | – | – | – | – | – | – | MIC [9]: 20 µM |
| CCCCCC=CCC=CCCCCCCCC(=O)O [.increment.^9 12] | – | – | – | – | – | – | – | MIC [9]: 10 µM |
| Triglycerol monolaurate | 290 µM | 590 µM | 240 µM | 290 µM | > 2360 µM | > 2360 µM | 1180 µM | – |
| Oc1ccccc1 [Phenol] | – | – | – | – | – | – | – | MIC [10]: 1250 µg/mL (≈ 13.3 mM); MIC [11]: 1250 µg/mL (≈ 13.3 mM); MIC [12]: 1250 to 2500 µg/mL (≈ 13.3 to 26.6 mM); MIC [13]: 2500 µg/mL (≈ 26.6 mM); MIC [14]: 1250 µg/mL (≈ 13.3 mM); MIC [15]: 1250 to 2500 µg/mL (≈ 13.3 to 26.6 mM) |
| CCCCCCCCCCCC(=O)OCC(O)CO (stereo not drawn) [1-mono-laurin] | – | – | – | – | – | – | – | Activity relative to 2-mono-laurin [16]: as active as the 2-mono-laurin; Activity in words ([16]; Table 6 footnote): Highly active on all organisms except streptococcus Group D; Antimicrobial activity in words (growth curve) [8]: responsible for all antimicrobial activity; MIC [10]: > 2500 µg/mL; MIC [11]: 39 µg/mL (≈ 0.142 mM); MIC [12]: > 2500 µg/mL; MIC [13]: > 2500 µg/mL; MIC [14]: > 2500 µg/mL; MIC [15]: 39 µg/mL (≈ 0.142 mM) |
| CCCCCCC=CCCCC=CCCCCC(=O)O [.increment.^6 11] | – | – | – | – | – | – | – | MIC [9]: 20 µM |
| Triglycerol monocaprate | 150 µM | 630 µM | 320 µM | 1260 µM | > 2500 µM | > 2500 µM | 2500 µM | MIC [17]: > 2500 µM |
| CCCOC(=O)c1ccc(O)cc1 [Propyl paraben] | – | – | – | – | – | – | – | MIC [10, 18]: 2500 µg/mL (≈ 13.9 mM); MIC [11, 18]: 2500 µg/mL (≈ 13.9 mM); MIC [12, 18]: 2500 µg/mL (≈ 13.9 mM); MIC [13, 18]: 5000 µg/mL (≈ 27.7 mM); MIC [14, 18]: > 10000 µg/mL; MIC [15, 18]: 2500 µg/mL (≈ 13.9 mM) |
| Hexaglycerol monolaurate | 190 µM | 380 µM | 380 µM | 380 µM | > 1520 µM | > 1520 µM | > 1520 µM | – |
